pIC50: −log10 of the molar value.

The target in the experiment is T1, human mPGES-1 (Homo sapiens, UniProt O14684).
T1 construct: made in house; host or cells: E. coli
T1 sequence (O14684 1-152): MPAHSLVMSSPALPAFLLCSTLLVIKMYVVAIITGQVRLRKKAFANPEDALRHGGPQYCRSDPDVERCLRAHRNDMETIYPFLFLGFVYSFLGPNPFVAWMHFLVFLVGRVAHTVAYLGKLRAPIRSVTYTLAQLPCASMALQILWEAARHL
The experiment in a line: mPGES-1 biological test (conversion of PGH2 to PGE2, HPLC analysis). Type of experiment: biochemical. Conditions: human mPGES-1 expressed in E. coli, membrane fraction; 25 min preincubation with inhibitor, 60 s with PGH2, room temperature; read-out: concentration at which 50% inhibition of mPGES-1 was observed. As to the method:
In the assay human mPGES-1 catalyses the reaction where the substrate PGH2 is converted to PGE2. mPGES-1 is expressed in E. coli and the membrane fraction is dissolved in 20 mM NaPi-buffer pH 8.0 and stored at −80° C. In the assay human mPGES-1 is dissolved in 0.1 M KPi-buffer pH 7.35 with 2.5 mM glutathione. The stop solution consists of H2O/MeCN (7/3), containing FeCl2 (25 mM) and HCl (0.15 M). The assay is performed at room temperature in 96-well plates. Analysis of the amount of PGE2 is performed with reversed phase HPLC (Waters 2795 equipped with a 3.9×150 mm C18 column). The mobile phase consists of H2O/MeCN (7/3), containing TFA (0.056%), and absorbance is measured at 195-nm with a Waters 2487 UV-detector.
The following is added chronologically to each well: • 1. 100 μL human mPGES-1 in KPi-buffer with glutathione. Total protein concentration: 0.02 mg/mL. • 2. 1 μL inhibitor in DMSO. Incubation of the plate at room temperature for 25 minutes. • 3. 4 μL of a 0.25 mM PGH2, solution. Incubation of the plate at room temperature for 60 seconds. • 4. 100 μL stop solution. • 180 μL per sample is analyzed with HPLC.
Regarding `CC(C)Oc1ccc(-n2c(C(=O)O)cc3cc(-c4ccc(C(C)(C)C)cc4)ccc32)cc1` [Example 1, 5-(4-tert-Butylphenyl)-1-(4-isopropoxphenyl)-indole-2-carboxylic acid], the pIC50 was 7.21.
Take `CC(C)Oc1ccc(-n2c(C(=O)O)cc3cc(-c4ccc(OC(C)C)nc4)ccc32)cc1` [Example 9]: the pIC50 is 6.21.
With `CC(C)Oc1ccc(-c2ccc3c(c2)c(Cl)c(C(=O)O)n3-c2ccc(OC(C)C)nc2)cc1` [Example 33, 3-Chloro-5-(4-isopropoxyphenyl)-1-(6-isopropoxypyrid-3-yl)indole-2-carboxylic acid], the pIC50 was 6.41.
Consider `O=C(O)c1c(Cl)c2cc(-c3ccc(C(F)(F)F)cn3)ccc2n1-c1ccc(OC2CCCC2)nc1` [Example 36, 3-Chloro-1-(6-cyclopentoxypyrid-3-yl)-5-(5-trifluoromethylpyrid-2-yl)-1H-indole-2-carboxylic acid], for which the pIC50 was 5.96.
In the case of `CC(C)(C)c1ccc(-c2ccc3c(c2)cc(C(=O)O)n3-c2ccc(C3CCCCC3)cc2)cc1` [Example 64, 5-(4-tert-Butylphenyl)-1-(4-cyclohexylphenyl)-1H-indole-2-carboxylic acid], the pIC50 was 6.77.

The values above are taken from US7705023B2, “Indoles useful in the treatment of inflammation” (Biolipox AB, priority 2005, dated 2010).
